Reference: patent US9409983B2, “Methods and compositions involving PBEF inhibitors for lung inflammation conditions and diseases” (The Board of Trustess of the University of Illinois, priority 2009, dated 2016)

What was measured:
RENCA cells = details: cited from earlier work
human PBEF [1] = assay: In vitro PBEF silencing with siRNAs; type: cell-based
Description: In vitro human PBEF stealth siRNAs were designed based on the human PBEF cDNA reference sequence (NM_005746.1) using the BLOCK-iTi RNAi Designer (Invitrogen, Carlsbad, Calif.). The siRNA sequence 1 (as reported in Ye et al. 2005 MVR w/@75% silencing) was custom synthesized from Invitrogen (cat#10620312_40993403, NM_005746); (5′-[…]-3′ SEQ ID NO:4) and scrambled controls (cat#10620312_40993404).
Alternatively, small interfering RNA (siRNA) targeting human PBEF1 (NM_005746) was purchased as 4 ON-TARGETplus SMARTpool siRNA duplexes (catalog#L-004581-00) from Dharmacon (Lafayette, Colo.).

human PBEF [2] = details: as reported in Ye et al. 2005; cited from earlier work
[3] = tested on: rat peritoneal neutrophils; assay: Transmigration and chemotaxis assay (Transwell); type: cell-based; details: rhPBEF (10 ng/ul) or casein in lower chamber, up to 4 hours
Experimental: Chemotaxis of rat peritoneal neutrophils (calcein-AM) across 3 μm polycarbonate filters was assessed in response to recombinant human PBEF/visfatin (rhPBEF, PeproTech, Rocky Hill, N.J.), or casein (positive control). (See Supplemental Methods for additional details).
Neutrophils were collected from retired breeder male Harlan-Sprague Dawley rats by intraperitoneal injection of 2.5% casein (5 ml). The resulting peritoneal fluid was recovered by PBS peritoneal lavage after 18 hr, centrifuged and examined for total cell counts and cell differentiation. For chemotaxis assays, leukocytes were exposed to calcein-AM in the presence of plurionic acid for 1 hr at room temperature. The temperature was then elevated to 37° C. for 30 min to cleave the calcein AM thereby reducing the rate of calcein diffusion out of the cells. […] The receiving wells were assessed serially in a fluorescent plate reader with absorption at 494 nm and emission measured at 517 nm. Fluorescence was recorded at 5, 10, 15, 30 min and each subsequent 30 min period for up to 4 hr. Aliquots of known numbers of neutrophils were counted in separate wells at each time point to account for any quenching of the fluorescence over time.

## O=C(/C=C/c1cccnc1)NCCCCC1CCN(C(=O)c2ccccc2)CC1 [FK-866]
RENCA cells; doses of up to 6 mg/kg FK-866, TNP 470 30 mg/kg subcutaneously every other day
  toxicity compared with TNP-470 treatment: less toxic than treatment with TNP-470
RENCA cells; oral, twice daily, days 14 to 19 after tumor cell inoculation
  doses with significant antitumor efficacy: ≥ 10 mg/kg

## Invitrogen siRNA: human PBEF stealth siRNA, single sequence, custom synthesized from Invitrogen; 5′-CCACCCAACACAAGCAAAGUUUAUU-3′ SEQ ID NO:4 (Stealth siRNA from Invitrogen, modification pattern not given here)
Human PBEF [1]
  downregulating PBEF protein expression: effective
Human PBEF [2]
  PBEF silencing: 75%

## casein [reference compound]
[3]
  PMN migration across Transwell filters: significant at all time points beginning at 30 minutes
